Experiments:
Assay type in all cases: cell-based
E. coli DH5α = assay: Antibacterial activity: MIC and growth curve against E. coli DH5α in 96-well plate; details: minimal inhibitory concentration against E. coli DH5α; 96-well plate, 5×10^5 CFU/mL, 37° C., judged after 8 h
Outline: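 MIC taken as lowest protein level with no bacterial growth, tracked by A600 every 30 min during 37 °C, 175 rpm culture. Two-fold protein series 50-12.5 μg/mL final, triplicate wells, against 5×10^5 CFU/mL of LB-washed mid-log cells.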

E. coli BL21 = assay: MIC against Gram-negative bacteria: E. coli BL21
Outline: (§1)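 LB broth cultures at McFarland 0.5, spun down, resuspended, diluted to 5×10^5 CFU/mL final. Two-fold serial dilutions of purified human EGF domain proteins, triplicate. 37° C, 175 rpm shaking. Endpoint: no visible growth.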

Pseudomonas aeruginosa = assay: MIC against Gram-negative bacteria: Pseudomonas aeruginosa
Outline: as §1

Klebsiella pneumonia = assay: MIC against Gram-negative bacteria: Klebsiella pneumonia
Outline: as §1

Enterobacter cloacae = assay: MIC against Gram-negative bacteria: Enterobacter cloacae
Outline: as §1

Aeromonas hydrophila = assay: MIC against Gram-negative bacteria: Aeromonas hydrophila
Outline: as §1

Citrobacter diversus = assay: MIC against Gram-negative bacteria: Citrobacter diversus
Outline: as §1

Moraxella catarrhalis = assay: MIC against Gram-negative bacteria: Moraxella catarrhalis
Outline: as §1

Proteus mirabilis = assay: MIC against Gram-negative bacteria: Proteus mirabilis
Outline: as §1

Proteus vulgaris = assay: MIC against Gram-negative bacteria: Proteus vulgaris
Outline: as §1

Serratia marcescens = assay: MIC against Gram-negative bacteria: Serratia marcescens
Outline: as §1

[1] = E. coli BL21, 10 h cultivation at 37° C., 5×10^5 CFU/mL
[2] = P. aeruginosa, 10 h cultivation at 37° C., 5×10^5 CFU/mL
[3] = K. pneumonia, 10 h cultivation at 37° C., 5×10^5 CFU/mL
[4] = E. cloacae, 10 h cultivation at 37° C., 5×10^5 CFU/mL
[5] = A. hydrophila, 10 h cultivation at 37° C., 5×10^5 CFU/mL
[6] = C. diversus, 10 h cultivation at 37° C., 5×10^5 CFU/mL
[7] = M. catarrhalis, 10 h cultivation at 37° C., 5×10^5 CFU/mL
[8] = P. mirabilis, 10 h cultivation at 37° C., 5×10^5 CFU/mL
[9] = P. vulgaris, 10 h cultivation at 37° C., 5×10^5 CFU/mL
[10] = S. marcescens, 10 h cultivation at 37° C., 5×10^5 CFU/mL
[11] = 96-well plate, 5×10^5 CFU/mL, 37° C., 10 h

PRT789 (YGNDCHQRCQCQNGATCDHVTGECRCPPGYTGAFCE; listed as Homo sapiens)
25 µg/mL: MIC (E. coli DH5α) | MIC (μg/mL) P. aeruginosa (Pseudomonas aeruginosa; [2]) | MIC (μg/mL) C. diversus (Citrobacter diversus; [6]) | MIC (μg/mL) M. catarrhalis (Moraxella catarrhalis; [7]) | MIC (μg/mL) P. vulgaris (Proteus vulgaris; [9])
12.5 µg/mL: MIC (μg/mL) K. pneumonia (Klebsiella pneumonia; [3]) | MIC (μg/mL) A. hydrophila (Aeromonas hydrophila; [5]) | MIC (μg/mL) S. marcescens (Serratia marcescens; [10])
50 µg/mL: MIC (μg/mL) E. coli BL21 (E. coli BL21; [1]) | MIC (μg/mL) E. cloacae (Enterobacter cloacae; [4]) | MIC (μg/mL) P. mirabilis (Proteus mirabilis; [8])

PRT1441 (EVDECSWPDHGGCEHRCVNTLGSYKCACDPGYELAADKKMCE; listed as Homo sapiens)
12.5 µg/mL: MIC against P. aeruginosa (Pseudomonas aeruginosa; Pseudomonas aeruginosa, 5×10^5 CFU/mL, 10 h cultivation at 37° C.) | MIC against E. cloacae (Enterobacter cloacae; Enterobacter cloacae, 5×10^5 CFU/mL, 10 h cultivation at 37° C.) | MIC against M. catarrhalis (Moraxella catarrhalis; Moraxella catarrhalis, 5×10^5 CFU/mL, 10 h cultivation at 37° C.) | MIC against P. mirabilis (Proteus mirabilis; Proteus mirabilis, 5×10^5 CFU/mL, 10 h cultivation at 37° C.) | MIC against S. marcescens (Serratia marcescens; Serratia marcescens, 5×10^5 CFU/mL, 10 h cultivation at 37° C.)
25 µg/mL: MIC (E. coli DH5α) | MIC against E. coli BL21 (E. coli BL21; E. coli BL21, 5×10^5 CFU/mL, 10 h cultivation at 37° C.) | MIC against K. pneumonia (Klebsiella pneumonia; Klebsiella pneumonia, 5×10^5 CFU/mL, 10 h cultivation at 37° C.) | MIC against A. hydrophila (Aeromonas hydrophila; Aeromonas hydrophila, 5×10^5 CFU/mL, 10 h cultivation at 37° C.) | MIC against P. vulgaris (Proteus vulgaris; Proteus vulgaris, 5×10^5 CFU/mL, 10 h cultivation at 37° C.)
100 µg/mL: MIC against C. diversus (Citrobacter diversus; Citrobacter diversus, 5×10^5 CFU/mL, 10 h cultivation at 37° C.)

PRT154 (DVDECSLAEKTCVRKNENCYNTPGSYVCVCPDGFEETEDACV; listed as Homo sapiens)
50 µg/mL: MIC (μg/mL) E. coli BL21 (E. coli BL21; [1]) | MIC (μg/mL) E. cloacae (Enterobacter cloacae; [4]) | MIC (μg/mL) M. catarrhalis (Moraxella catarrhalis; [7])
25 µg/mL: MIC (μg/mL) K. pneumonia (Klebsiella pneumonia; [3]) | MIC (μg/mL) C. diversus (Citrobacter diversus; [6]) | MIC (μg/mL) P. mirabilis (Proteus mirabilis; [8]) | MIC (μg/mL) S. marcescens (Serratia marcescens; [10])
12.5 µg/mL: MIC (E. coli DH5α) | MIC (μg/mL) P. aeruginosa (Pseudomonas aeruginosa; [2]) | MIC (μg/mL) A. hydrophila (Aeromonas hydrophila; [5]) | MIC (μg/mL) P. vulgaris (Proteus vulgaris; [9])

PRT608 (CDCNGRSQECYFDPELYRSTGHGGHCTNCQDNTDGAHCERCRENFFRLGNNEACSS; listed as Homo sapiens)
25 µg/mL: MIC E. cloacae (Enterobacter cloacae; [11]) | MIC C. diversus (Citrobacter diversus; [11]) | MIC P. mirabilis (Proteus mirabilis; [11]) | MIC S. marcescens (Serratia marcescens; [11])
12.5 µg/mL: MIC (E. coli DH5α) | MIC P. aeruginosa (Pseudomonas aeruginosa; [11]) | MIC A. hydrophila (Aeromonas hydrophila; [11]) | MIC P. vulgaris (Proteus vulgaris; [11])
50 µg/mL: MIC E. coli BL21 (E. coli BL21; [11]) | MIC K. pneumonia (Klebsiella pneumonia; [11]) | MIC M. catarrhalis (Moraxella catarrhalis; [11])

PRT906 (LVHWCDSSPCKNGGKCWQTHTQYRCECPSGWTGLYCD; listed as Homo sapiens)
25 µg/mL: MIC (E. coli BL21; E. coli BL21, 10 h cultivation at 37° C.) | MIC (Klebsiella pneumonia; K. pneumonia, 10 h cultivation at 37° C.) | MIC (Citrobacter diversus; C. diversus, 10 h cultivation at 37° C.) | MIC (Proteus mirabilis; P. mirabilis, 10 h cultivation at 37° C.) | MIC (Serratia marcescens; S. marcescens, 10 h cultivation at 37° C.)
50 µg/mL: MIC (E. coli DH5α) | MIC (Enterobacter cloacae; E. cloacae, 10 h cultivation at 37° C.) | MIC (Moraxella catarrhalis; M. catarrhalis, 10 h cultivation at 37° C.)
12.5 µg/mL: MIC (Pseudomonas aeruginosa; P. aeruginosa, 10 h cultivation at 37° C.) | MIC (Aeromonas hydrophila; A. hydrophila, 10 h cultivation at 37° C.) | MIC (Proteus vulgaris; P. vulgaris, 10 h cultivation at 37° C.)

PRT18 (CQCNPHGSYGGTCDPATGQCSCRPGVGGLRCDRCEPGFWNFRGIVTDGRSGCTP; listed as Homo sapiens)
12.5 µg/mL: MIC (E. coli DH5α) | MIC (μg/mL) C. diversus (Citrobacter diversus; Citrobacter diversus, 96-well plate, 5×10^5 CFU/mL, 37° C., 10 h) | MIC (μg/mL) M. catarrhalis (Moraxella catarrhalis; Moraxella catarrhalis, 96-well plate, 5×10^5 CFU/mL, 37° C., 10 h) | MIC (μg/mL) P. vulgaris (Proteus vulgaris; Proteus vulgaris, 96-well plate, 5×10^5 CFU/mL, 37° C., 10 h) | MIC (μg/mL) S. marcescens (Serratia marcescens; Serratia marcescens, 96-well plate, 5×10^5 CFU/mL, 37° C., 10 h)
50 µg/mL: MIC (μg/mL) E. coli BL21 (E. coli BL21; E. coli BL21, 96-well plate, 5×10^5 CFU/mL, 37° C., 10 h) | MIC (μg/mL) E. cloacae (Enterobacter cloacae; Enterobacter cloacae, 96-well plate, 5×10^5 CFU/mL, 37° C., 10 h)
100 µg/mL: MIC (μg/mL) K. pneumonia (Klebsiella pneumonia; Klebsiella pneumonia, 96-well plate, 5×10^5 CFU/mL, 37° C., 10 h)
25 µg/mL: MIC (μg/mL) P. aeruginosa (Pseudomonas aeruginosa; Pseudomonas aeruginosa, 96-well plate, 5×10^5 CFU/mL, 37° C., 10 h) | MIC (μg/mL) A. hydrophila (Aeromonas hydrophila; Aeromonas hydrophila, 96-well plate, 5×10^5 CFU/mL, 37° C., 10 h) | MIC (μg/mL) P. mirabilis (Proteus mirabilis; Proteus mirabilis, 96-well plate, 5×10^5 CFU/mL, 37° C., 10 h)

From patent US9833497B2, “Human originated EGF domain proteins and use of the same” (CHENGDU SOURCEBIO LIMITED-LIABILITY COMPANY, priority 2013, dated 2017)
